system: U87MG cells; experiment: Cytotoxicity assay (cell viability, CellTiter 96 Aqueous MTS); type: cell-based; conditions: Homo sapiens, U-87 MG, 72 h, 72 hours incubation, starting concentration 50 uM, 9 point half log dilution, average where tested repeatedly
Method: Example 3: Cytotoxicity Assay
U87MG cells were plated at a density of 7×10^3 cells/well and allowed to seed overnight. Cells were then treated with compounds from Table 1 or CMPD-1 (4-(2′-fluoro-[1,1′-biphenyl]-4-yl)-N-(4-hydroxyphenyl)butanamide as a positive control) were added to cells at a starting concentration of 50 uM, with a 9 point half log dilution, and incubated for 72 hours prior to viability determination. IC50 values were calculated from cell viability as measured using the CellTiter 96® Aqueous MTS reagent from Promega©, and the results are shown in Table 2.

Compound | IC50
O=C(NCCCc1ccc(-c2ccccc2F)cc1)[C@H]1C[C@@H](O)C1 [Compound 77, (1s,3s)-N-(3-(2′-fluoro-[1,1′-biphenyl]-4-yl)propyl)-3-hydroxycyclobutane-1-carboxamide] | > 5 µM
O=C(NCCCc1ccc(-c2ccccc2F)cc1)c1ccc2cn[nH]c2c1 [Compound 79, N-(3-(2′-fluoro-[1,1′-biphenyl]-4-yl)propyl)-1H-indazole-6-carboxamide] | > 5 µM
Cc1cncc(C(=O)NCCCc2ccc(-c3ccccc3F)cc2)c1 [Compound 80, N-(3-(2′-fluoro-[1,1′-biphenyl]-4-yl)propyl)-5-methylnicotinamide] | 1 to 5 µM
O=C(NCCCc1ccc(-c2ccccc2F)cc1)C1=CN2C=CNC2C=C1 (centres unmarked) [Compound 82, N-(3-(2′-fluoro-[1,1′-biphenyl]-4-yl)propyl)-1,8a-dihydroimidazo[1,2-a]pyridine-6-carboxamide] | > 5 µM
O=C(NCCCc1ccc(-c2ccccc2F)cc1)c1ccc(C(F)(F)F)nc1 [Compound 83, N-(3-(2′-fluoro-[1,1′-biphenyl]-4-yl)propyl)-6-(trifluoromethyl)nicotinamide] | 1 to 5 µM
O=C(NCCCc1ccc(-c2ccccc2F)cc1)c1nc2ccccc2[nH]1 [Compound 84, N-(3-(2′-fluoro-[1,1′-biphenyl]-4-yl)propyl)-1H-benzo[d]imidazole-2-carboxamide] | > 5 µM
O=C(NCCCc1ccc(-c2ccccc2F)cc1)c1cncc(C(F)(F)F)c1 [Compound 85, N-(3-(2′-fluoro-[1,1′-biphenyl]-4-yl)propyl)-5-(trifluoromethyl)nicotinamide] | 1 to 5 µM
CN1CCC(C(=O)NCCCc2ccc(-c3ccccc3F)cc2)CC1 [Compound 87, N-(3-(2′-fluoro-[1,1′-biphenyl]-4-yl)propyl)-1-methylpiperidine-4-carboxamide] | > 5 µM
Cn1cnc(C(=O)NCCCc2ccc(-c3ccccc3F)cc2)c1 [Compound 88, N-(3-(2′-fluoro-[1,1′-biphenyl]-4-yl)propyl)-1-methyl-1H-imidazole-4-carboxamide] | > 5 µM
Cc1cc(C(=O)NCCCc2ccc(-c3ccccc3F)cc2)n(C)n1 [Compound 89, N-(3-(2′-fluoro-[1,1′-biphenyl]-4-yl)propyl)-1,3-dimethyl-1H-pyrazole-5-carboxamide] | < 0.5 µM
Cc1cc(C(=O)NCCCc2ccc(-c3ccccc3F)cc2)no1 [Compound 90, N-(3-(2′-fluoro-[1,1′-biphenyl]-4-yl)propyl)-5-methylisoxazole-3-carboxamide] | < 0.5 µM
O=C(NCCCc1ccc(-c2ccccc2F)cc1)c1ccc2c(c1)OCCO2 [Compound 91, N-(3-(2′-fluoro-[1,1′-biphenyl]-4-yl)propyl)-2,3-dihydrobenzo[b] [1,4]dioxine-6-carboxamide] | > 5 µM
Cn1cnc2cc(C(=O)NCCCc3ccc(-c4ccccc4F)cc3)cnc21 [Compound 95, N-(3-(2′-fluoro-[1,1′-biphenyl]-4-yl)propyl)-3-methyl-3H-imidazo[4,5-b]pyridine-6-carboxamide] | < 0.5 µM
Cc1ccc(C(=O)NCCCc2ccc(-c3ccccc3F)cc2)c(C)n1 [Compound 99, N-(3-(2′-fluoro-[1,1′-biphenyl]-4-yl)propyl)-2,6-dimethylnicotinamide] | 1 to 5 µM
Cc1nc2cc(C(=O)NCCCc3ccc(-c4ccccc4F)cc3)ccc2[nH]1 [Compound 100, N-(3-(2′-fluoro-[1,1′-biphenyl]-4-yl)propyl)-2-methyl-1H-benzo[d]imidazole-5-carboxamide] | > 5 µM
O=C(Cc1noc2ccccc12)NCCCc1ccc(-c2ccccc2F)cc1 [Compound 102, 2-(benzo[d]isoxazol-3-yl)-N-(3-(2′-fluoro-[1,1′-biphenyl]-4-yl)propyl)acetamide] | > 5 µM

Compound | IC50
Nc1ccc(C(=O)NCCCc2ccc(-c3ccccc3F)cc2)cn1 [Compound 105, 6-amino-N-(3-(2′-fluoro-[1,1′-biphenyl]-4-yl)propyl)nicotinamide] | < 0.5 µM
Cn1nccc1C(=O)NCCCc1ccc(-c2ccccc2F)cc1 [Compound 106, N-(3-(2′-fluoro-[1,1′-biphenyl]-4-yl)propyl)-1-methyl-1H-pyrazole-5-carboxamide] | 0.501 to 1 µM
O=C(NCCCc1ccc(-c2ccccc2F)cc1)C(F)(F)c1ccccc1 [Compound 108, 2,2-difluoro-N-(3-(2′-fluoro-[1,1′-biphenyl]-4-yl)propyl)-2-phenylacetamide] | < 0.5 µM
CCn1nc(C)cc1C(=O)NCCCc1ccc(-c2ccccc2F)cc1 [Compound 109, 1-ethyl-N-(3-(2′-fluoro-[1,1′-biphenyl]-4-yl)propyl)-3-methyl-1H-pyrazole-5-carboxamide] | 0.501 to 1 µM
COc1ccc(CC(=O)NCCCc2ccc(-c3ccccc3F)cc2)cc1OC [Compound 110, 2-(3,4-dimethoxyphenyl)-N-(3-(2′-fluoro-[1,1′-biphenyl]-4-yl)propyl)acetamide] | > 5 µM
O=C(NCCCc1ccc(-c2ccccc2F)cc1)c1ccno1 [Compound 111, N-(3-(2′-fluoro-[1,1′-biphenyl]-4-yl)propyl)isoxazole-5-carboxamide] | > 5 µM
CCOc1ccc(CC(=O)NCCCc2ccc(-c3ccccc3F)cc2)cc1 [Compound 112, 2-(4-ethoxyphenyl)-N-(3-(2′-fluoro-[1,1′-biphenyl]-4-yl)propyl)acetamide] | 1 to 5 µM
O=C(NCCCc1ccc(-c2ccccc2F)cc1)c1cc[nH]n1 [Compound 113, N-(3-(2′-fluoro-[1,1′-biphenyl]-4-yl)propyl)-1H-pyrazole-3-carboxamide] | > 5 µM
COc1ccc(CC(=O)NCCCc2ccc(-c3ccccc3F)cc2)c(OC)c1 [Compound 114, 2-(2,4-dimethoxyphenyl)-N-(3-(2′-fluoro-[1,1′-biphenyl]-4-yl)propyl)acetamide] | > 5 µM
O=C(NCCCc1ccc(-c2ccccc2F)cc1)c1c[nH]c2ccccc12 [Compound 117, N-(3-(2′-fluoro-[1,1′-biphenyl]-4-yl)propyl)-1H-indole-3-carboxamide] | > 5 µM
O=C(NCCCc1ccc(-c2ccccc2F)cc1)c1cc[nH]c1 [Compound 118, N-(3-(2′-fluoro-[1,1′-biphenyl]-4-yl)propyl)-1H-pyrrole-3-carboxamide] | > 5 µM
O=C(Cc1ccc(OC(F)(F)F)cc1)NCCCc1ccc(-c2ccccc2F)cc1 [Compound 120, N-(3-(2′-fluoro-[1,1′-biphenyl]-4-yl)propyl)-2-(4-(trifluoromethoxy)phenyl)acetamide] | 0.501 to 1 µM
CC(=O)Nc1ccc(C(=O)NCCCc2ccc(-c3ccccc3F)cc2)cn1 [Compound 121, 6-acetamido-N-(3-(2′-fluoro-[1,1′-biphenyl]-4-yl)propyl)nicotinamide] | 1 to 5 µM
O=C(NCCCc1ccc(-c2ccccc2F)cc1)c1ccc2nccnc2c1 [Compound 123, N-(3-(2′-fluoro-[1,1′-biphenyl]-4-yl)propyl)quinoxaline-6-carboxamide] | > 5 µM
O=C(Cn1ccnc1)NCCCc1ccc(-c2ccccc2F)cc1 [Compound 124, N-(3-(2′-fluoro-[1,1′-biphenyl]-4-yl)propyl)-2-(1H-imidazol-1-yl)acetamide] | > 5 µM
Cc1cc(C(=O)NCCCc2ccc(-c3ccccc3F)cc2)nn1C [Compound 125, N-(3-(2′-fluoro-[1,1′-biphenyl]-4-yl)propyl)-1,5-dimethyl-1H-pyrazole-3-carboxamide] | > 5 µM

Reference: patent US12247010B2, “Tubulin inhibitors” (LIN BIOSCIENCE PTY LTD., priority 2017, dated 2025)
